According to ChEMBL document CHEMBL4831513, “Discovery of quinazoline derivatives as a novel class of potent and in vivo efficacious LSD1 inhibitors by drug repurposing” (Eur J Med Chem, 2021):

Each compound was assayed against Lysine-specific histone demethylase 1A (Homo sapiens, UniProt O60341).
Description: Inhibition of recombinant full length LSD1 (unknown origin) transfected in Escherichia coli BL21 (DE) using H3K4me2 as substrate by flourescence based analysis

IC50, > 50 µM:
COCCOc1cc2ncnc(Sc3nnnn3C)c2cc1OCCOC
COCCOc1cc2ncnc(Oc3cccc(Cl)c3)c2cc1OCCOC
C#Cc1cccc(Nc2nc(-c3ccccc3)nc3ccccc23)c1
C#Cc1cccc(Nc2ncnc3cc(OC)c(OC)cc23)c1
COCCOc1cc2ncnc(Nc3ccc(Br)cc3)c2cc1OCCOC
COCCOc1cc2ncnc(N3CCN(c4ccccc4F)CC3)c2cc1OCCOC
COCCOc1cc2ncnc(Nc3ccccc3)c2cc1OCCOC
C#Cc1cccc(Nc2ncnc3ccc(Br)cc23)c1
COCCOc1cc2ncnc(Oc3ccc(OC)cc3)c2cc1OCCOC
COCCOc1cc2ncnc(Sc3nnnn3-c3ccccc3)c2cc1OCCOC
COCCOc1cc2ncnc(Sc3ccc(Cl)cc3)c2cc1OCCOC
C#Cc1cccc(Nc2ncnc3cc(OCc4ccccc4)c(OC)cc23)c1
COCCOc1cc2ncnc(N3CCN(C(C)=O)CC3)c2cc1OCCOC
COCCOc1cc2ncnc(Sc3ccccn3)c2cc1OCCOC
COCCOc1cc2ncnc(Sc3ccc(C)cc3)c2cc1OCCOC
COCCOc1cc2ncnc(Nc3ccc(F)cc3)c2cc1OCCOC
COCCOc1cc2ncnc(Nc3ccc4c(c3)OCO4)c2cc1OCCOC
C#Cc1cccc(Nc2ncnc3ccccc23)c1
